According to patent publication US20090054403A1, “Treatment of Post-Traumatic Stress Disorder” (priority 2007, published 2009):

Key:
[1] = test system: blood pressure; experiment: Radio-telemetry blood pressure in SHR, up to 30 days; assay type: in vivo
[2] = test system: plasma NE, DA and EPI; experiment: Plasma catecholamines in beagle dogs, 2 mg/kg b.i.d. for 14.5 days; assay type: in vivo
Experimental: A separate study was conducted in dogs to determine the effects of chronic administration of 2a on the plasma DA/NE ratio. Animals were randomized to receive, orally, either placebo (empty capsule) or 2a (2 mg/kg, b.i.d) for 14.5 days. Daily blood samples were drawn, 6 h after the first dose, for the measurement of plasma concentrations of DA and NE. The samples were collected in tubes containing heparin and glutathione, centrifuged at […] and stored at −70° C. until analysis.
Male Beagle dogs (Marshall farms, North Rose, N.Y.) weighing between 9-16 kg were used in the study. The animals were allowed water ad libitum and given food once daily at ˜10.00 AM. Animals were randomly assigned to one of the following treatment groups (n=8/group): placebo (empty capsule), or nepicastat at 2 mg/kg b.i.d (4 mg/kg/day). Each animal received 2 doses daily, morning and afternoon (8-10 hours apart). Daily blood samples (10 ml) were drawn 6 h after the AM dose for measurement of plasma levels of nepicastat and catecholamines. The blood was collected in tubes containing heparin and glutathione and centrifuged at −4° C. within 1 h of collection. The plasma was separated and divided into two samples, one for the measurement of plasma catecholamines and the other for analysis of nepicastat.
Plasma NE, DA and EPI were anaylysed by HPLC using electrochemical detection. Plasma concentration of nepicastat was determined by HPLC using electrochemical detection.
The BQL (below quantitation limit) in the DA concentration of dog 1 at day 10 was set to 0; ln (0) was set to missing. The analysis was performed using a mixed model (using PROC MIXED) with the day and treatment categorical variables being fixed and the dog within treatment being a random factor. For the fixed effects, the interaction between the day and the treatment was included, since the difference between the drug and placebo groups varies from day to day. Contrasts were calculated using the CONTRAST statement, which correctly takes into account the error terms for each particular contrast. In particular, the contrasts comparing the […] uses the dog mean square for its error term, while the comparisons used to establish steady state are all within dog comparisons, and require the error mean square.
The time period of steady state was calculated using the Helmert transformation (cf. SAS PROC GLM manual). These transformations compare each treatment mean with the average of the treatment means of the time points following. The steady state period is defined to start at the first time point following the maximum time at which the Helmert contrast is statistically significant. However, since this method can fail to detect a smoothly changing process, as appears might be the case here, the slope of the analyte concentration during the steady state period also was calculated. The slope during the steady state period was calculated for each dog individually, yielding one slope per animal. Univariate statistics on the slopes were then calculated, with Normal theory confidence intervals built on the mean slope, and the hypothesis of slope equalling zero was tested, and its Normal theory p-value was calculated. This slope analysis was used as the basis for determining whether the steady state period was a period of changing concentration.

[3] = test system: mean arterial pressure and heart rate; experiment: Hemodynamic study in conscious, restrained SHR; assay type: in vivo, spontaneously hypertensive rats (SHR)
Experimental: FIG. 13: Effects of orally administered 2a on mean arterial pressure in conscious, restrained spontaneously hypertensive rats (SHR). SHR were lightly anesthetized with ether and instrumented for measurement of arterial pressure and drug administration. The animals were placed in restrainers and allowed to recover for 30-40 minutes. […] All data are expressed as mean±standard error of mean. n=6-8 per group. […] IR spectra were recorded on a Nicolet SPC FT-IR spectrometer. UV spectra were recorded on a Varian Cary 3 UV-Visible spectrometer, Leeman Labs Inc. Optical rotations were measured in a Perkin-Elmer Model 141 polarimeter. […] Hemodynamic study in SHR. Male SHR (15-16 week old) were used in the study. The animals were lightly anesthetized with ether and the left femoral artery and vein were catheterized for measurement of blood pressure and drug administration, respectively. The animals were placed in restrainers and allowed to recover for 30-40 min. […] The animals were then anesthetized with pentobarbital, placed on a heating pad (37° C.) and ventilated with a Harvard rodent ventilator. After administration of atropine (1 mg/kg, iv) and tubocurarine (1 mg/kg, iv), the animals were pithed through the orbit of the eye with a stainless steel rod. The […] rod was stimulated electrically with 1 ms pulses of 80V at different frequencies (0.15, 0.45, 1.5, 5, 15 Hz) to obtain frequency-pressor response curves.

## Cl.NCc1c[nH]c(=S)n1[C@H]1CCc2c(F)cc(F)cc2C1 [nepicastat, (S)-5-Aminomethyl-1-(5,7-difluoro-1,2,3,4-tetrahydronaphth-2-yl)-2,3-dihydro-2-thioxo-1H-imidazole hydrochloride]
[1]; 30 mg/kg/d
  peak decrease in blood pressure: −20 mmHg
[1]; 100 mg/kg/d
  peak decrease in blood pressure: −42 mmHg
[1]; 3 and 10 mg/kg/d
  effect on blood pressure: no significant effects
[1]; 30 and 100 mg/kg/d for 30 days
  effect on blood pressure: significantly lowered blood pressure
[1]; 30 days of dosing
  effect on blood pressure of nepicastat 30 mg/kg combined with enalapril 1 mg/kg p.o.: potentiation of the antihypertensive effects
  left ventricular mass, nepicastat 30 mg/kg combined with enalapril 1 mg/kg p.o.: significant reduction in left ventricular mass
  motor activity: unaffected
[2]; 2 mg/kg b.i.d.
  day of peak decrease in plasma EPI: 8 days
  day of peak decrease in plasma NE: 6 days
  day of peak increase in plasma DA: 7 days
  day of peak increase in plasma DA/NE ratio: 6 days
  decrease in plasma EPI vs placebo: 1.91 fold
  decrease in plasma NE vs placebo: 2.1 fold
  increase in plasma DA vs placebo: 7.5 fold
  increase in plasma DA/NE ratio vs placebo: 13.6 fold
  time to steady-state of effect on plasma DA: ~8 days post-dose
  time to steady-state of effect on plasma EPI: ~6 days post-dose
  time to steady-state of effect on plasma NE: approximately 4 days post-dose
[2]; 2 mg/kg b.i.d. po, day-6 of dosing
  peak reduction in plasma concentration of noradrenaline: 52%
[2]; 2 mg/kg b.i.d. po, day-7 of dosing
  peak increase in plasma concentration of dopamine: 646%
[2]; 2 mg/kg b.i.d., 14.5 day treatment
  time to peak effect on plasma DA/NE ratio: 6 to 7 days
[3]; 10 mg/kg oral
  decrease in heart rate: 9.8%
  maximal decrease in mean blood pressure: 53±4 mmHg
  reduction in mean blood pressure relative to vehicle control: 33%
[3]; 10 mg/kg, 4 hours after dosing
  decrease in pressure: −46 mmHg
[3]; 30 mg/kg oral
  decrease in heart rate: 10.5%
[3]; acute oral administration
  duration of antihypertensive effects: > 4 h
[3]; oral dosing
  time to plateau of antihypertensive response: 3 to 4 h
